Data on three molecules can be found in patent US20250197424A1, “QUINOLINE COMPOUND AND USE THEREOF” (SHANGHAI PHARMACEUTICALS HOLDING CO., LTD., priority 2022, published 2025).

Series [1] in a line: In vivo bioavailability experiment in mice (pharmacokinetics). The settings on record: ICR mice; for clearance / half-life / MRT / Vd / bioavailability: mouse, plasma; for MRT: read-out: Mean residence time; for Vd: read-out: Steady-state volume of distribution. As for the experimental part:
Experimental Animals: ICR mice, weighing 20 grams, provided by Sino-British SIPPR Lab Animal Ltd, Shanghai. The compound to be tested was accurately weighed and dissolved in DMSO to prepare a stock solution with a concentration of 15 mg/mL. The compound stock solution was accurately measured and diluted with 0.9% saline and Solutol in a ratio of 8.8:1 to a concentration of 0.3 mg/mL. The solution was clear and transparent, used for intravenous administration. Additionally, the compound was accurately weighed and mixed with 0.5% CMC-Na to a concentration of 0.5 mg/mL, used for oral gavage administration. Intravenous group: Three ICR mice, weighing 20 g+2 g, were intravenously administered the intravenous dosing solution. The dosing volume was 10 mL/kg, with a dose of 3 mg/kg. Blood samples (0.03 mL) were collected from the fundus vein of the mice at pre-dose and at 2, 15, 30, 60, 120, 240, 480, and 1440 minutes post-dose. Oral gavage group: Three ICR mice, weighing 20 g+2 g, were administered the oral gavage dosing solution. The dosing volume was 20 mL/kg, with doses of 10 mg/kg and 30 mg/kg. Blood samples (0.03 mL) were collected from the fundus vein of the mice at pre-dose and at 5, 15, 30, 60, 120, 240, 480, and 1440 minutes post-dose. The blood samples were centrifuged at 6800 g for 6 minutes at 2-8° C. The plasma was collected and stored in centrifuge tubes at -70° C. for later analysis. A 19 μL aliquot of blank mouse plasma was taken, and 1 μL of the standard curve working solution was added to prepare a series of concentration samples at 1, 0.5, 0.2, 0.1, 0.05, 0.01, 0.005, and 0.001 μg/mL. The mixture was vortexed and mixed well, and 400 μL of methanol containing an internal standard (Warfarin, 100 ng/mL) was added to precipitate the proteins. The mixture was vortexed and shaken for 1 minute, centrifuged at 18000 g for 7 minutes at 4° C., and the supernatant was transferred to a 96-well plate for injection. A 20 μL aliquot of the plasma sample was mixed with 400 μL of methanol containing an internal standard (Warfarin, 100 ng/mL) to precipitate the proteins. The mixture was vortexed for 10 minutes, centrifuged at 18000 g for 7 minutes at 4° C., and 400 μL of the supernatant was transferred to a 96-well plate for a 10 μL injection. Liquid chromatography system: Acquity UPLC system (including a binary solvent manager, sample manager, column heater, and degasser) from Waters Corporation, USA. MS/MS system: QTRAP® 6500+ triple quadrupole mass spectrometer equipped with an electrospray ionization (ESI) source from Sciex Corporation, USA. Analytical column: BEH C18 column, 1.7 μm, 50×2.1 mm I.D., from Waters Corporation, USA. Flow rate: 0.60 mL/min; injection volume: 10 μL; column temperature: 40° C. The gradient elution program used was as follows: The ion source was an electrospray ionization source (Turbo Ionspray, ESI); the ion spray voltage was […]; the temperature was 500° C.; the ion source gas 1 (N2) pressure was 50 psi; the ion source gas 2 (N2) pressure was 50 psi; the curtain gas (N2) pressure was 20 psi; the collision gas pressure (CAD) was Medium; detection was performed in positive ion mode; the scan type was multiple reaction monitoring (MRM).

The next series has as its target GTP-KRAS-G12D:SOS1 (Homo sapiens (Human), UniProt P01116, G12D). Nature of the series: GTP-KRAS-G12D:SOS1 binding inhibition. The method, then: The IC50 of the compounds was fitted using a nonlinear regression equation with GraphPad Prism 8. The results are presented in Table 2: • Negative control: DMSO • Positive control: 100 μM BI-2852
The following nonlinear fitting formula was used to obtain the IC50 (half-maximal inhibitory concentration) of the compounds:
[formula] • X: logarithm of the compound concentration • Y: 665/615 Ratio

Setting [2] is: intravenous injection, dose 3 (3 mg/kg in method).
[3] abbreviates: oral, dose 30 (30 mg/kg in method).

pIC50: −log10 of the molar value. Counter-ions that a name gives are not always drawn. Like-named read-outs stand apart in the source and are kept apart here. Marks after values point to notes of the source that are not given here.

GTP-KRAS-G12D:SOS1, sequence (P01116-2 other isoform, or with tags, fused parts or gaps G12D): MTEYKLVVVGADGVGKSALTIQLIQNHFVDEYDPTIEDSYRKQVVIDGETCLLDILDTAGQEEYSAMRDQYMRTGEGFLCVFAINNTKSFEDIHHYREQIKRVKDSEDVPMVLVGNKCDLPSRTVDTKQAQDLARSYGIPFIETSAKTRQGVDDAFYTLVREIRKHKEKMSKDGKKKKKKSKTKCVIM

Consider `CCc1cccc2cc(O)cc(-c3c(F)c4c5c(nc(OC[C@]67C[C@@H](F)CN6C[C@@H](COC)C7)nc5c3F)N3CC5CCC(N5)C3CO4)c12` (single isomer, unassigned) [Compound 18b, 4-((2S or 2R,5aS,6S,9R)-1,3-difluoro-13-(((2R,6S,7aS)-2-fluoro-6-(methoxymethyl)tetrahydro-1H-pyrrolizin-7a(5H)-yl)methoxy)-5a,6,7,8,9,10-hexahydro-5H-6,9-epiminoazepino[2′,1′:3,4][1,4]oxazepino[5,6,7-de]quinazolin-2-yl)-5-ethylnaphthalen-2-ol dihydrochloride], for which, in series [1] (setting [2]), the Area under curve is listed as 1944.73 (h) * (ng/mL); the Maximum plasma concentration came to 7632.72 ng/mL; the clearance (usually a measure of how efficiently the substance is removed, as volume per time) is 24.5 mL/min/kg; the half-life (in general, the time in which the quantity being followed falls by half) is 11.8 h. Moreover, in series [1] (setting [2]), the MRT worked out at 1.41 h and the Vd came out at 4.98 L/kg. Also, in series [1] (setting [3]), the Area under curve is reported as 1904.95 (h) * (ng/mL); the Maximum plasma concentration is listed as 508.76 ng/mL; the bioavailability (as a rule, the share of a dose that reaches the circulation, judged against a reference dose that is usually intravenous) was 9.8%; the half-life is 3.57 h. The MRT in series [1] (setting [3]) was found to be 3.77 h. Moreover, the pIC50 (commonly −log10 of the IC50, conventionally taken in molar units) on GTP-KRAS-G12D:SOS1 is 8.12.
In the case of `CCc1cccc2cc(O)cc(-c3c(F)c4c5c(nc(OC[C@]67C[C@@H](F)CN6C[C@@H](CN6C[C@@H](C)O[C@@H](C)C6)C7)nc5c3F)N3CC5CCC(N5)C3CO4)c12` (single isomer, unassigned) [Compound 25b, 4-((2S or 2R)-13-(((2R,6R,7aS)-2-(((2R,6S)-2,6-dimethylmorpholino)methyl)-6-fluorotetrahydro-1H-pyrrolizin-7a(5H)-yl)methoxy)-1,3-difluoro-5a,6,7,8,9,10-hexahydro-5H-6,9-epiminoazepino[2′,1′:3,4][1,4]oxazepino[5,6,7-de]quinazolin-2-yl)-5-ethylnaphthalen-2-ol trihydrochloride], in series [1] (setting [2]), the Area under curve is recorded as 7940.26 (h) * (ng/mL), the Maximum plasma concentration is on record as 22039.3 ng/mL, the clearance was 6.33 mL/min/kg and the half-life was 12.2 h. Further, in series [1] (setting [2]), the MRT is 1.01 h and the Vd came out at 0.84 L/kg. In series [1] (setting [3]), the Area under curve is listed as 2365.19 (h) * (ng/mL), the Maximum plasma concentration was 863.75 ng/mL, the bioavailability is 2.98% and the half-life is 3.81 h. The MRT in series [1] (setting [3]) stood at 3.15 h. The same molecule had a pIC50 on GTP-KRAS-G12D:SOS1 of 8.17.
On to `CCc1cccc2cc(O)cc(-c3c(F)c4c5c(nc(OC[C@@]67CCCN6C[C@H](F)C7)nc5c3F)N3CC5CCC(N5)C3CCO4)c12` (single isomer, unassigned) [13a′, 4-((2S or 2R,6aS,7S,10R)-1,3-Difluoro-14-(((2R,7aS)-2-fluorotetrahydro-1H-pyrrolizin-7a(5H)-yl)methoxy)-5,6,6a,7,8,9,10,11-octahydro-7,10-epiminoazepino[1′,2′: 5,6][1,5]oxazocino[4,3,2-de]quinazolin-2-yl)-5-ethylnaphthalen-2-ol], for which, in series [1] (setting [2]), the Area under curve is 2062.35 (h) * (ng/mL), the Maximum plasma concentration was 3563.93 ng/mL, the clearance was 6.5 mL/min/kg and the half-life was 15.9 h. For the same molecule, in series [1] (setting [2]), the MRT was 4.73 h and the Vd was found to be 5.33 L/kg. Besides, in series [1] (setting [3]), the Area under curve is 3091.66 (h) * (ng/mL), the Maximum plasma concentration was determined as 781.43 ng/mL, the bioavailability amounted to 15% and the half-life was 4.68 h. Moreover, the MRT in series [1] (setting [3]) was 4.53 h. Further, the pIC50 at GTP-KRAS-G12D:SOS1 was 7.55.
